Laboratory results: ChEMBL document CHEMBL4507268 (2021)

Legend:
Details in all cases: Compound concentration 1000.0 nM
[1] = molecular target: T1, Serine/threonine-protein kinase PLK4 (Homo sapiens) (UniProt O00444)
T1 sequence (whole entry): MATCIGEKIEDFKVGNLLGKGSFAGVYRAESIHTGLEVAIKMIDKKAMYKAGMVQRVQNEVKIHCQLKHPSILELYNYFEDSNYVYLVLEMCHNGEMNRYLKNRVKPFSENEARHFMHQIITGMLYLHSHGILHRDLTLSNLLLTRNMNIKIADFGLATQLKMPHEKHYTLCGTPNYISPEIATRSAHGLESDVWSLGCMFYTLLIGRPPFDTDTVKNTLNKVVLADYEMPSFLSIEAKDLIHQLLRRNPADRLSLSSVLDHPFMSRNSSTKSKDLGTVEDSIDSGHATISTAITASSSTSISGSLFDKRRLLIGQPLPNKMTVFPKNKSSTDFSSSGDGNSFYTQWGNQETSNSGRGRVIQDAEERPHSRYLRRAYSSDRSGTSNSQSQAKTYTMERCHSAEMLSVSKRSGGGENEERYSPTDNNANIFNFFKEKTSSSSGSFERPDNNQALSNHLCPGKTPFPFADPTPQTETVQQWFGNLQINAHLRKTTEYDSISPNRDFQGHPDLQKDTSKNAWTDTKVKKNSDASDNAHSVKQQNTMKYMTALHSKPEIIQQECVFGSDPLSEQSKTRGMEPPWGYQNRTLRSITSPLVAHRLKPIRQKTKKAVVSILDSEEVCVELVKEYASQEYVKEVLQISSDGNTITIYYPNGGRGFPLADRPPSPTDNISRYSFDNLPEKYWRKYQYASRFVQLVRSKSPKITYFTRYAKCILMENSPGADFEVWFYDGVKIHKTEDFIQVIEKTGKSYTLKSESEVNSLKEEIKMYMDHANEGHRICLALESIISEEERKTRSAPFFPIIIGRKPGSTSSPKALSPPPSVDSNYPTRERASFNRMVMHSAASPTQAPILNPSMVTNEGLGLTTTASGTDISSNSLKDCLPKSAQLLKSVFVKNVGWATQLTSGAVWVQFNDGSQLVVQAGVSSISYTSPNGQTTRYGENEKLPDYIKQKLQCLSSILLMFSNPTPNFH

[2] = molecular target: Dual specificity testis-specific protein kinase 1 (Homo sapiens) (UniProt Q15569)
[3] = molecular target: T2, Serine/threonine-protein kinase D3 (Homo sapiens) (UniProt O94806)
T2 sequence (whole entry): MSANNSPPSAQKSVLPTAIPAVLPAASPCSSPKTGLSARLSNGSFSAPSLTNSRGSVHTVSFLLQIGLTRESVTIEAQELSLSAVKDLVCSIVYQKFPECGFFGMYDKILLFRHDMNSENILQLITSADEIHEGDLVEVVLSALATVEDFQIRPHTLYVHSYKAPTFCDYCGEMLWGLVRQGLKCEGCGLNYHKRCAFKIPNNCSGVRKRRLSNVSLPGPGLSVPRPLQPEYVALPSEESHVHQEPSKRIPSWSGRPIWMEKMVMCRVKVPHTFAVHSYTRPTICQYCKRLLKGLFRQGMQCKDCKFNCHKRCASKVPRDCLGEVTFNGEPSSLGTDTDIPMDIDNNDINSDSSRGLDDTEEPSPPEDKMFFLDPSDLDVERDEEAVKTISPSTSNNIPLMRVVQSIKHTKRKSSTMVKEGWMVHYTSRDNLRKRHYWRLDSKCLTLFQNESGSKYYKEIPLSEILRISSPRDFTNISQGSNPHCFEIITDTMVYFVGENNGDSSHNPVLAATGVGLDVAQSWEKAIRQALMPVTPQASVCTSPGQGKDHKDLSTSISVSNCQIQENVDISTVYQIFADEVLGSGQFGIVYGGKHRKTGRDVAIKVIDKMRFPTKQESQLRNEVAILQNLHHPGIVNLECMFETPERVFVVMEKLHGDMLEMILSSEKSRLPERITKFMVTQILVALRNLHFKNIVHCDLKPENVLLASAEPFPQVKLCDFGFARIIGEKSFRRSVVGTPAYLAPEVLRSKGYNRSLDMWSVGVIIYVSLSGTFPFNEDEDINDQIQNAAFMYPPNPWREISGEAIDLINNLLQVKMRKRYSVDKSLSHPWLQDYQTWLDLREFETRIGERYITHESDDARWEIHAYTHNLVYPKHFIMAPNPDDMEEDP

[4] = molecular target: Casein kinase I isoform epsilon (Homo sapiens) (UniProt P49674)
[5] = molecular target: T3, Serine/threonine-protein kinase TAO1 (Homo sapiens) (UniProt Q7L7X3)
T3 sequence (whole entry): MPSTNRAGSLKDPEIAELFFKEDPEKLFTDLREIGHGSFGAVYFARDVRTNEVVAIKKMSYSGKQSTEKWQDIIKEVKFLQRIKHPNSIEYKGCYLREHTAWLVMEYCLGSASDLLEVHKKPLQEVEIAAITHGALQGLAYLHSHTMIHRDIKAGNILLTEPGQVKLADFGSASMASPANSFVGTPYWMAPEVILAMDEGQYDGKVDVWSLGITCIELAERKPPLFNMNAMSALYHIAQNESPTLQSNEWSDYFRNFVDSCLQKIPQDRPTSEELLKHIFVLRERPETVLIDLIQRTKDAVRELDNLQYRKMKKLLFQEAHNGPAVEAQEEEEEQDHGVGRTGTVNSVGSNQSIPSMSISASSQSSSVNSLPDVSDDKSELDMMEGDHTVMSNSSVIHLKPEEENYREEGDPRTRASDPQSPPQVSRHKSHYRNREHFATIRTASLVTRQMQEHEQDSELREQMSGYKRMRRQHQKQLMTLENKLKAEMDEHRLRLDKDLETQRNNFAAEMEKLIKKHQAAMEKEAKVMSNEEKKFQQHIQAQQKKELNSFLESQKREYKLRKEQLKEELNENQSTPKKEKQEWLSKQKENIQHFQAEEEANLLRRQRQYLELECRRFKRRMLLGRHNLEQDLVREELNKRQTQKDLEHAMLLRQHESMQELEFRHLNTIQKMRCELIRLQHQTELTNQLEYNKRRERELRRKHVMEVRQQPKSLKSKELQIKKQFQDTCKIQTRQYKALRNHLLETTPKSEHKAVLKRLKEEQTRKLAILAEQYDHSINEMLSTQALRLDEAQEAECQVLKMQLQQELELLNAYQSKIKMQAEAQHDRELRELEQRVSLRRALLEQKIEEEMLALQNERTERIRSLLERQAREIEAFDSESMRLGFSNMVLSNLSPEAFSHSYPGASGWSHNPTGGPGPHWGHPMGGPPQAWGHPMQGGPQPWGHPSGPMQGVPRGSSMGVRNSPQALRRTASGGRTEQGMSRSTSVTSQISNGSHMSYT

Measured: residual activity

Sequence of Casein kinase I isoform epsilon (Homo sapiens) (P49674 whole entry, looked up, canonical isoform): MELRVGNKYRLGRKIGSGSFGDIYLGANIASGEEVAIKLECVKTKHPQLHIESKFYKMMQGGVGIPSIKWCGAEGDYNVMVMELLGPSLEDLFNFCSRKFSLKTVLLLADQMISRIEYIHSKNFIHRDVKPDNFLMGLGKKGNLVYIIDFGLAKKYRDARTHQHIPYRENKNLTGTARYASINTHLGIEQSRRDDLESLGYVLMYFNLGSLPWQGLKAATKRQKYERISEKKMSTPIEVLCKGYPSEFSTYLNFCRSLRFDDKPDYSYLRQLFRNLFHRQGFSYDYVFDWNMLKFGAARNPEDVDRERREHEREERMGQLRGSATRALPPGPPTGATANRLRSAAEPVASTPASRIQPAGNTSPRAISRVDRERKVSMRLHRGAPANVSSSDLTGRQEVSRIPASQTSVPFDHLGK
Sequence of Dual specificity testis-specific protein kinase 1 (Homo sapiens) (Q15569 whole entry, looked up): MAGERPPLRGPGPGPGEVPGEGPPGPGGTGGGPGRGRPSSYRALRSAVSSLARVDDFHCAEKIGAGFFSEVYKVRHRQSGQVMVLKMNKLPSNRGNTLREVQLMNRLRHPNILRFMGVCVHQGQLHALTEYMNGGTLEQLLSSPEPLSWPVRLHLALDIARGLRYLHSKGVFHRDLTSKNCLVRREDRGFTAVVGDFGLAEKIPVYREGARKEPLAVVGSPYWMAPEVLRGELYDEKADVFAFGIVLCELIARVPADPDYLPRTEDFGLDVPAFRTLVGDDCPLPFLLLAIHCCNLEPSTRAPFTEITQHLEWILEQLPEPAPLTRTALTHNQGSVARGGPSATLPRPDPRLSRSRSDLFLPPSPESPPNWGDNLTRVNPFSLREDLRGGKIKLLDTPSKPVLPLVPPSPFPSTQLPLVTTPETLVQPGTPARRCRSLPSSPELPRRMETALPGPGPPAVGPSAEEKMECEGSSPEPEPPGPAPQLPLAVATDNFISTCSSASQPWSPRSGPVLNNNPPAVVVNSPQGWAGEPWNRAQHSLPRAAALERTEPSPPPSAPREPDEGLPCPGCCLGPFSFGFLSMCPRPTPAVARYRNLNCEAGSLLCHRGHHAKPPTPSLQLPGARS

Cc1nc(C2CCN(C(=O)c3ccc(OC(F)(F)F)cc3N)CC2)c2ncc(N3CCN(C)CC3)cc2n1 [BAY-693]
inactive: [1] 77% | [2] 100% | [3] 100% | [4] 100% | [5] 100%

CN1CCN(c2cnc3c(C4CCN(C(=O)c5ccc(OC(F)(F)F)cc5N)CC4)ncnc3c2)CC1 [BAY-885]
inactive: [1] 83% | [2] 96% | [3] 100% | [4] 100% | [5] 100%
